The results in this text go back to US20050222048A1, “Novel synthetic C-glycolipids, their synthesis and use to treat infections, cancer and autoimmune diseases” (The Research Foundation of The City University of New York, priority 2004, published 2005).

The assay concerns IFN-γ. Put plainly: Serum IFN-γ concentration by sandwich ELISA after i.v. injection of glycolipid into mice. The assay is classed as in vivo. The settings on record: BALB/c mice, 1 μg i.v., ELISA at 2, 6, 12 and 24 hours post-injection. How it is done:
α-Galactosylceramide (α-GalCer, KRN or KRN7000) was synthesized by Kirin Brewery (Gumma, Japan). The stock solution was dissolved in a 0.5% polysorbate −20 (Nikko Chemical, Tokyo), 0.9% NaCl solution at a concentration of 200 μg/ml, and diluted in PBS just before injection into mice. α-C-galactosylceramide (α-C-GalCer, CRONY or CRONY-101) was synthesized as described in commonly owned U.S. patent application Ser. No. 10/462,211. Compounds […], GCK75(a) and GCK75(b) were synthesized as described herein. The stock solution was originally dissolved in 100% DMSO at a concentration of 1 mg/ml. Before injection into mice, it was diluted to a concentration of 200 μg/ml in a 0.5% polysorbate-20 (Nikko Chemical, Tokyo), 0.9% NaCl solution, and diluted in PBS just before injection into mice. […]
The serum concentrations of IFN-γ were measured at 2, 6, 12, and 24 hours after treatment with α-GalCer, α-C-GalCer, compound […], GCK75(a), GCK75(b), or nothing using a sandwich ELISA (e-bioscience, San Diego).
To compare the timing of immunological responses to α-GalCer (KRN), α-C-GalCer (CRONY), GCM11i, GCK75(a), and GCK75(b), mice were injected intravenously (i.v.) with 1 μg of each of the glycolipids or with nothing. At 2, 6, 12, and 24 hours post-injection, IFN-γ concentrations in the sera were measured by ELISA.
On the technique in general: ELISA stands for enzyme-linked immunosorbent assay.

In the case of α-C-galactosylceramide [α-C-GalCer], the “time of peak IFN-γ response in the sera post-injection” value worked out at 24 h.
